US20100292214A1, “Compounds with Antiparasitic Activity, Applications thereof to the Treatment of Infectious Diseases Caused by Apicomplexans” (commissariat a l'Energie Atomique, priority 2007, published 2010)
Where a name gives a salt, the structure may show the parent alone.

Tests used:
[1] = tested on: asynchronous 3D7 chloroquine-sensitive P. falciparum infected red blood cells; assay: Labeled hypoxanthine incorporation assay (in vitro anti-malarial activity); assay type: cell-based; details: Plasmodium falciparum, 3D7, Erythrocyte, 3D7 chloroquine-sensitive strain, infected RBC, 48 h contact, [3H]-hypoxanthine incorporation; two independent experiments in duplicates; read-out: IC50 assessed on Plasmodium Falciparum
[2] = tested on: Toxoplasma gondii RH-β1 strain; assay: microbe, parasite or virus in culture; assay type: cell-based; details: Toxoplasma gondii, read-out: IC50 assessed on Toxoplama Gondii

SMILES	IC50 [1] [nM]	IC50 [2] [nM]
O=c1[nH]c2ccccc2n1C1CCN(C[C@H](Cc2ccccc2)N(Cc2ccccc2)Cc2ccccc2)CC1 [Compound 51, 1-(1-((S)-2-(dibenzylamino)-3-phenylpropyl)piperidin-4-yl)-1H-benzo[d]imidazol-2(3H)-one]	2110	4000
C[C@@H](COC(=O)N1CCC(n2c(=O)[nH]c3ncccc32)CC1)N(Cc1ccccc1)Cc1ccccc1 [Compound 11, (S)-2-(dibenzylamino)propyl 4-(2,3-dihydro-2-oxoimidazo[4,5-b]pyridin-1-yl)piperidine-1-carboxylate]	3840	2500
C[C@@H](COC(=O)N1CCC(n2c(=O)n(S(=O)(=O)c3cccs3)c3ccccc32)CC1)N(Cc1ccccc1)Cc1ccccc1 [Compound 59, (S)-2-(dibenzylamino)propyl 4-(2-oxo-3-(thiophen-2-ylsulfonyl)-2,3-dihydro-1H-benzo[d]imidazol-1-yl)piperidine-1-carboxylate]	470	3800
O=C(OC[C@H](Cc1ccccc1)N(Cc1ccccc1)Cc1ccccc1)N1CCC(n2c(=O)n(Cc3ccccc3)c3ccccc32)CC1 [Compound 70, (S)-2-(dibenzylamino)-3-phenylpropyl 4-(1-benzyl-1,2-dihydro-2-oxobenzo[d]imidazol-3-yl)piperidine-1-carboxylate]	953	3600
O=C(CCCN(Cc1ccccc1)Cc1ccccc1)N1CCC(n2c(=O)[nH]c3ccccc32)CC1 [Compound 96, 1-[1-(4-Dibenzylamino-butyryl)-piperidin-4-yl]-1,3-dihydrobenzoimidazol-2-one]	11300	6300
C[C@@H](COC(=O)N1CCC(n2c(=O)[nH]c3ccccc32)CC1)N(Cc1ccccc1)Cc1cccs1 [Compound 139, (S)-2-(benzyl(thiophen-2-ylmethyl)amino)propyl 4-(2-oxo-2,3-dihydro-1H-benzo[d]imidazol-1-yl)piperidine-1-carboxylate hydrochloride]	3410	5000
C[C@@H](COC(=O)N1CCC(Nc2nc3ccccc3n2C(=O)OC[C@H](C)N(Cc2ccccc2)Cc2ccccc2)CC1)N(Cc1ccccc1)Cc1ccccc1 [Compound 94, (S)-2-(dibenzylamino)propyl 2-(1-(((S)-2-(dibenzylamino)propoxy)carbonyl)piperidin-4-ylamino)-1H-benzo[d]imidazole-1-carboxylate]	2620	9000
C[C@@H](COC(=O)N1CCC(n2c(=O)n(C(=O)OC(C)(C)C)c3ccccc32)CC1)N(Cc1ccccc1)Cc1ccccc1 [Compound 67, tert-butyl 3-(1-(((S)-2-(dibenzylamino)propoxy)carbonyl)piperidin-4-yl)-2,3-dihydro-2-oxobenzo[d]imidazole-1-carboxylate]	785	2000
COc1ccc(NC2CCN(C(=O)OC[C@H](C)N(Cc3ccccc3)Cc3ccccc3)CC2)c(OC)c1 [Compound 82, (S)-2-(dibenzylamino)propyl 4-(2,4-dimethoxyphenylamino)piperidine-1-carboxylate]	2380	7300
COc1ccc(CN(CCOC(=O)N2CCC(n3c(=O)[nH]c4ccccc43)CC2)Cc2ccccc2)cc1 [Compound 121, 2-(benzyl(4-methoxybenzyl)amino)ethyl 4-(2-oxo-2,3-dihydro-1H-benzo[d]imidazol-1-yl)piperidine-1-carboxylate hydrochloride]	3490	5000
Cn1c(=O)n(C2CCN(C(=O)OC[C@H](Cc3ccccc3)N(Cc3ccccc3)Cc3ccccc3)CC2)c2ccccc21 [Compound 68, (S)-2-(dibenzylamino)-3-phenylpropyl 4-(1,2-dihydro-1-methyl-2-oxobenzo[d]imidazol-3-yl)piperidine-1-carboxylate]	452	800
C[C@@H](CNC(=S)N1CCC(n2c(=O)[nH]c3ccccc32)CC1)N(Cc1ccccc1)Cc1ccccc1 [Compound 91, N-((S)-2-(dibenzylamino)propyl)-4-(1,2-dihydro-2-oxobenzo[d]imidazol-3-yl)piperidine-1-carbothioamide]	2710	7500
O=C(OCCCN(Cc1ccccc1)Cc1cccc(Oc2ccccc2)c1)N1CCC(n2c(=O)[nH]c3ccccc32)CC1 [Compound 146, 3-(benzyl(3-phenoxybenzyl)amino)propyl 4-(2-oxo-2,3-dihydro-1H-benzo[d]imidazol-1-yl)piperidine-1-carboxylate hydrochloride]	1960	1500
C[C@@H](COC(=O)N1CCC(n2c(=O)n3c4c(cccc42)C(=O)CCC3)CC1)N(Cc1ccccc1)Cc1ccccc1 [Compound 79, (S)(1-((2-(dibenzylamino)propoxy)carbonyl)piperidin-4-yl)-5,6-dihydro-imidazo[4,5,1,j,k][1]benzazepine-2,7(1H,4H)-dione]	3120	11500
CC(=O)Nc1ccc(S(=O)(=O)n2c(=O)n(C3CCN(C(=O)OC[C@H](C)N(Cc4ccccc4)Cc4ccccc4)CC3)c3ccccc32)cc1 [Compound 63, (S)-2-(dibenzylamino)propyl 4-(2-oxo-3-(4-acetamidylphenylsulfonyl)-2,3-dihydro-1H-benzo[d]imidazol-1-yl)piperidine-1-carboxylate]	1540	3000
C[C@@H](CNC(=N)N1CCC(n2c(=O)[nH]c3ccccc32)CC1)N(Cc1ccccc1)Cc1ccccc1 [Compound 95, N—((S)-2-(dibenzylamino)propyl)-4-(1,2-dihydro-2-oxobenzo[d]imidazol-3-yl)piperidine-1-carboxamidine]	511	11000
C[C@@H](COC(=O)N1CCC(n2c(=O)n(C)c3ccccc32)CC1)N(Cc1ccccc1)Cc1ccccc1 [Compound 69, (S)-2-(dibenzylamino)propyl 4-(1,2-dihydro-1-methyl-2-oxobenzo[d]imidazol-3-yl)piperidine-1-carboxylate]	1540	200
C[C@@H](COC(=O)N1CCC(N(c2ccccc2)S(=O)(=O)c2cccc3c(N(C)C)cccc23)CC1)N(Cc1ccccc1)Cc1ccccc1 [Compound 172, (S)-2-(dibenzylamino)propyl 4-(N-phenyl-(5-dimethylamino)naphthalen-1-ylsulfonamido)piperidine-1-carboxylate]	314	212
C[C@@H](COC(=O)N1CCC(N(c2ccccc2)S(=O)(=O)c2cccc3cccnc23)CC1)N(Cc1ccccc1)Cc1ccccc1 [Compound 160, (S)-2-(dibenzylamino)propyl 4-(N-phenylquinolin-8-ylsulfonamido)piperidine-1-carboxylate]	1060	2700
C[C@@H](COC(=O)N1CCC(Nc2ccccc2N)CC1)N(Cc1ccccc1)Cc1ccccc1 [Compound 87, (S)-2-(dibenzylamino)propyl 4-(2-aminophenylamino)piperidine-1-carboxylate]	10300	12900
O=C(OCCN(Cc1ccccc1)Cc1ccccc1)N1CCC(n2c(=O)[nH]c3ccccc32)CC1 [Compound 30, 2-(dibenzylamino)ethyl 4-(1,2-dihydro-2-oxobenzo[d]imidazol-3-yl)piperidine-1-carboxylate]	6900	7500
